The values below come from PubChem BioAssay (NCI).

Test in all cases: NCI tumour cell line growth inhibition, 48 h
For test [1], the system named is COLO 205 colon.
For test [2], the system named is PC-3 prostate.
The subject of test [3] is MOLT-4 leukemia.
Test [4] has as its system OVCAR-5 ovarian.
Test [5] concerns HL-60(TB) leukemia.
For test [6], the system named is M14 melanoma.
Test [7] concerns SF-268 CNS.
Test [8] deals with HT29 colon.
The subject of test [9] is A498 renal.
Test [10] deals with CCRF-CEM leukemia.

Each structure is given as a SMILES string. Several values for one entry are separate records, joined by “and”; a condition that tells them apart may be missing. Equal values may be shown once.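 48-hour exposure; five concentrations; linearly interpolated endpoints. Here, GI50 denotes the concentration required for 50% inhibition of growth. At the TGI there is no net growth.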

For `Nc1c(C(=O)c2cccc(OCCN3CCOCC3)c2)cnn1-c1ccc(F)cc1`, the GI50 in test [1], in test [2], in [3], in [4], in test [5] and in [6] was more than 25 µM each time. Further, the GI50 in test [7], in test [8], in test [9] and in [10] was more than 25 µM in each case. Also, the TGI in test [1], in [2], in [3], in test [4], in [5] and in [6] was more than 25 µM throughout. In addition, the TGI in test [7], in [8], in test [9] and in [10] was more than 25 µM throughout.

For the compound `CS(=O)(=O)N1CCN(Cc2cc3nc(-c4cccc5[nH]ncc45)nc(N4CCOCC4)c3s2)CC1` (tested in a mixture with another compound), the GI50 in test [1] is 0.182 µM; in test [2], 0.0823 µM; in test [3], 0.0608 µM; in test [4], 0.134 µM; in [5] it was 0.0575 µM; in test [6], 0.277 µM. The GI50 in test [7] is 0.152 µM; in [8], 0.074 µM; in test [9] it was 0.136 µM; in test [10], 0.272 µM. Further, the TGI in test [1] came out at 0.649 µM; in [5], 34 µM; in test [9] it was 0.774 µM.

Regarding `Cc1cc(=O)oc2cc(OC(=O)Nc3ccc(Cl)c(Cl)c3)ccc12`, the TGI in test [1] was 96.5 µM; in test [2] it was 68.2 µM; in [3] it was 44.4 µM; in [4] it was 61.9 µM; in test [5], 41.9 µM; in [6], 50.9 µM. The TGI in test [7] is more than 100 µM; in test [8], 75.4 µM; in test [9] it was 32.6 µM; in test [10], 51.6 µM.

As to `COc1cc(-c2oc3c(OC)c(OC)cc(O)c3c(=O)c2OC)ccc1O`, the TGI in test [1] was more than 100 µM; in [2] it was more than 50 µM; in [3], 31.5 µM; in [4] it was more than 50 µM; in test [5], 7.58 µM; in test [6] it was more than 100 µM. Besides, the TGI in [7] is more than 100 µM; in test [8], more than 100 µM; in [9] it was > 100 µM and 42.4 µM; in test [10], > 100 µM and 21.4 µM. The GI50 in test [6] is 3 µM and 6.26 µM; in test [7] it was 34.4 µM and 15.3 µM; in test [9], 3.38 µM and 16.6 µM.

Regarding `COc1ccc(-c2cnc(-c3ccc(F)cc3)[nH]2)cc1`, the GI50 in [1] was 2.2 µM; in test [2], 10.8 µM; in [3], 10.5 µM; in [4], 12.6 µM; in [5], 2.03 µM; in test [6], 5.99 µM. For the same compound, the GI50 was 2.62 µM in test [7], 3.19 µM in test [8], 2.2 µM in test [9] and 18.1 µM in test [10]. The TGI in test [1] is 7.59 µM; in test [2], 68.4 µM; in [3] it was 49.6 µM; in test [4], 43.9 µM; in test [5], 23.4 µM; in test [6] it was 14.5 µM. Moreover, the TGI is 8 µM in test [7], more than 32.8 µM in test [8], 6.17 µM in test [9] and more than 89.4 µM in test [10].

`N#CC1C(=N)Cc2ccccc2-c2ccccc21` (configuration not stated): the GI50 is 3.82 µM in test [1]; 12.7 µM in [2]; 5 µM in test [3]; 9.04 µM in test [4]; 3.23 µM in [5]; 2.74 µM in [6]. In addition, the GI50 was 7.7 µM in [7], 4.1 µM in test [8], 2.78 µM in [9] and 4.42 µM in test [10]. In addition, the TGI in [1] is 20.9 µM; in [2], more than 100 µM; in test [3], 43.4 µM; in test [4], more than 100 µM; in test [5] it was 16.6 µM; in [6] it was 10.3 µM. Also, the TGI in test [7] is 51.7 µM; in test [8], 19.6 µM; in test [9] it was 14 µM; in [10] it was more than 100 µM.

On to `C=C(CN1CCN(c2cccc(C(F)(F)F)c2)CC1)c1ccc(C(=O)Nc2ccccc2N)cc1`, for which the GI50 is 3.45 µM in [1]; 0.615 µM in [2]; 0.13 µM in test [3]; 6.63 µM in test [4]; 0.118 µM in [5]; 1.05 µM in [6]. For the same compound, the GI50 in test [7] is 1.43 µM; in [8], 1.46 µM; in test [9], 0.005 µM; in test [10], 0.335 µM. The TGI in test [1] is more than 23 µM; in test [2], more than 50 µM; in test [3], 1.29 µM; in test [4] it was 26.4 µM; in test [5] it was 0.856 µM; in [6], 9.89 µM. In addition, the TGI in [7] is 10.8 µM; in [8], more than 50 µM; in test [9], 5.18 µM; in test [10] it was more than 50 µM.

For the compound `Cc1cc(O)c2c(c1)C(=O)c1cc(O)cc(O)c1C2=O`, the TGI in test [1] was 42 µM; in test [2] it was more than 100 µM; in [3], more than 100 µM; in test [4], more than 100 µM; in test [5] it was 76.5 µM; in test [6] it was 60.9 µM. Also, the TGI was 97.5 µM in [7], more than 100 µM in test [8], 56.5 µM in test [9] and more than 100 µM in [10]. Also, the GI50 in test [2] was 25 µM.

With `COc1cc(NN=C(c2ccc(O)cc2)c2ccc(O)cc2)c([N+](=O)[O-])cc1[N+](=O)[O-]`, the GI50 is 11.2 µM in test [1]; 14.6 µM in test [2]; 6.52 µM in [3]; 18.8 µM in [4]; 22 µM in test [5]; 11.4 µM in test [6]. Also, the GI50 in test [7] was 6.64 µM; in test [8] it was 10.9 µM; in test [9], 13.2 µM; in [10] it was 1.37 µM. The TGI was 23.2 µM in test [1]; more than 100 µM in test [2]; more than 100 µM in [3]; 40.1 µM in test [4]; more than 100 µM in test [5]; 24.7 µM in [6]. Besides, the TGI was 25.5 µM in test [7], 25.6 µM in [8], 35.2 µM in test [9] and more than 100 µM in test [10].
